Reference: patent publication US5912330A, “Crystalline maltosyl glucoside, and its production and use” (Kabushiki Kaisha Hayashibara Seibutsu Kagaku Kenkyujo, priority 1994, dated 1999)
In brackets after ≈: the same amount, converted by molar mass.

Experiments:
[1] = Reducing power (DE) by Somogyi-Nelson method; format: physicochemical; details: dextrose equivalent
Description: For purifying these newly formed saccharides, the reaction products were decolored, deionized, concentrated and subjected to column fractionation using a strongly-acidic cation exchanger in alkali-metal form ("XT-1016", Na^+ form, 4% cross-linking degree, a product of Tokyo Organic Chemical Industries, Ltd., Tokyo, Japan). More particularly, the cation exchanger was packed in 3 jacketed stainless steel columns, inner diameter of 2.0 cm, length of 1 m each, cascaded in series, which were then loaded with either reaction product in an amount of 5 v/v % to the volume of the cation exchanger and then applied with 55° C. water at an SV (space velocity) 0.13 for fractionation, and fractions containing 97% or more newly formed saccharides were collected. The obtained fractions were separately lyophilized into high-purity saccharide preparations. The yields against particular material substrates were about 9% for PI, about 65% for PII, about 82% for PIII, about 80% for PIV and about 77% for PV, and the final purities were 97.5% for PI, 98.6% for PII, 99.5% for PIII, 98.4% for PIV and 98.4% for PV.
These high-purity saccharide preparations were tested for their reducing powers with the Somogyi-Nelson method and their reducing powers were represented in terms of DE (dextrose equivalent).

[2] = Moisture adsorption / hygroscopicity of the products of the Examples; format: physicochemical
Solubility in water = format: physicochemical; details: 25° C. water
Procedure: (8) Solubility (as anhydride)
Up to about 163 g each hydrous and anhydrous crystals were respectively soluble in 100 ml of 25° C. water.

[3] = Hygroscopicity: water content and appearance at 90.1% relative humidity; format: physicochemical; details: for Hygroscopicity and appearance: in words
Procedure: About 1 g powder of hydrous crystalline maltosyl glucoside, anhydrous crystalline maltosyl glucoside or amorphous crystalline maltosyl glucoside was placed in a polyethylene vessel and allowed to stand in high humidity conditions of 90.1% relative humidity, and the changes of moisture content and appearance of these powders were observed and measured at a prescribed interval. Hydrous and anhydrous crystals, which were prepared by the methods of Experiment B-1, and amorphous crystal, which was prepared by dissolving hydrous crystal substance in deionized water and dried in vacuo to obtain a test sample.

mice = assay: Acute toxicity in mice upon oral administration; format: in vivo; details: for mortality: maximum administrable dose
Procedure: (§1) Hydrous and anhydrous crystalline maltosyl glucosides prepared by the method in Experiment B-1 were tested for acute toxicity in mice upon oral administration.

[4] = Acute toxicity in mice upon oral administration; format: in vivo; details: mouse, in vivo
Procedure: as §1

Q: For `OC[C@H]1O[C@H](O[C@H]2O[C@H](CO)[C@@H](O[C@H]3O[C@H](CO)[C@@H](O[C@H]4O[C@H](CO)[C@@H](O[C@H]5O[C@H](CO)[C@@H](O[C@H]6O[C@H](CO)[C@@H](O)[C@H](O)[C@H]6O)[C@H](O)[C@H]5O)[C@H](O)[C@H]4O)[C@H](O)[C@H]3O)[C@H](O)[C@H]2O)[C@H](O)[C@@H](O)[C@@H]1O` [PIV, α-maltopentaosyl glucoside], which DE [1] is on record?
A: Its DE is 0.27.

Q: For `OC[C@H]1O[C@H](O[C@H]2O[C@H](CO)[C@@H](O[C@H]3O[C@H](CO)[C@@H](O)[C@H](O)[C@H]3O)[C@H](O)[C@H]2O)[C@H](O)[C@@H](O)[C@@H]1O` [Example A-1], which hygroscopicity ([2]; in words, product of the Example) is on record?
A: The hygroscopicity was “substantially no hygroscopicity”.

Q: Which DE [1] does the source give for `OC[C@H]1O[C@H](O[C@H]2O[C@H](CO)[C@@H](O[C@H]3O[C@H](CO)[C@@H](O[C@H]4O[C@H](CO)[C@@H](O)[C@H](O)[C@H]4O)[C@H](O)[C@H]3O)[C@H](O)[C@H]2O)[C@H](O)[C@@H](O)[C@@H]1O` [PII, α-maltotriosyl glucoside] here?
A: The DE was 0.35.

Q: For `OC[C@H]1O[C@H](O[C@H]2O[C@H](CO)[C@@H](O[C@H]3O[C@H](CO)[C@@H](O[C@H]4O[C@H](CO)[C@@H](O[C@H]5O[C@H](CO)[C@@H](O[C@H]6O[C@H](CO)[C@@H](O[C@H]7O[C@H](CO)[C@@H](O)[C@H](O)[C@H]7O)[C@H](O)[C@H]6O)[C@H](O)[C@H]5O)[C@H](O)[C@H]4O)[C@H](O)[C@H]3O)[C@H](O)[C@H]2O)[C@H](O)[C@@H](O)[C@@H]1O` [PV, α-maltohexaosyl glucoside], which DE [1] is on record?
A: The DE was 0.23.

Q: With `OC[C@H]1O[C@H](O[C@H]2O[C@H](CO)[C@@H](O[C@H]3O[C@H](CO)[C@@H](O)[C@H](O)[C@H]3O)[C@H](O)[C@H]2O)[C@H](O)[C@@H](O)[C@@H]1O` [Anhydrous crystal, O-α-D-glucopyranosyl-(→4)-α-D-glucopyranosyl α-D-glucopyranoside] as the compound, how does the “Solubility (as anhydride)” value (Solubility in water) read?
A: The value was “about 163 g/100 ml”.

Q: What about the Water content ([3]; 0 hour) of the same compound?
A: Its Water content is 0.3%.

Q: What about the Water content ([3]; 2 hours) of the same compound?
A: The Water content was 10.3%.

Q: And the Water content ([3]; 8 hours)?
A: Its Water content is 10.4%.

Q: What about the Water content ([3]; 24 hours) of the same compound?
A: Its Water content is 10.5%.

Q: What about the Hygroscopicity and appearance [3] of the same compound?
A: Its Hygroscopicity and appearance is “hygroscopic, however, had no change of appearance and retained free-flowing ability”.

Q: What about the LD50 (mice) of the same compound?
A: The LD50 was no less than 50000 mg/kg.

Q: And the mortality (mice)?
A: Its mortality is “no mouse died”.

Q: Which results are given for `OC[C@H]1O[C@H](O[C@H]2O[C@H](CO)[C@@H](O[C@H]3O[C@H](CO)[C@@H](O)[C@H](O)[C@H]3O)[C@H](O)[C@H]2O)[C@H](O)[C@@H](O)[C@@H]1O` [Hydrous crystal, O-α-D-glucopyranosyl-(→4)-α-D-glucopyranosyl α-D-glucopyranoside]?
A: solubility (Solubility in water; read-out: Solubility (as anhydride)): ~1630 mg/mL (≈ 3230 mM); Water content ([3]; 0 hour): 9.9%; Water content ([3]; 2 hours): 10.4%; Water content ([3]; 8 hours): 10.5%; Water content ([3]; 24 hours): 10.5%; Hygroscopicity and appearance [3]: less hygroscopic, free flowing, and readily handleable; mortality (mice): no mouse died; LD50 [4]: ≥ 50000 mg/kg

Q: Which DE [1] does the source give for `OC[C@H]1O[C@H](O[C@H]2O[C@H](CO)[C@@H](O[C@H]3O[C@H](CO)[C@@H](O)[C@H](O)[C@H]3O)[C@H](O)[C@H]2O)[C@H](O)[C@@H](O)[C@@H]1O` [PI, α-maltosyl glucoside] here?
A: The DE was 0.83.

Q: For `OC[C@H]1O[C@H](O[C@H]2O[C@H](CO)[C@@H](O[C@H]3O[C@H](CO)[C@@H](O[C@H]4O[C@H](CO)[C@@H](O[C@H]5O[C@H](CO)[C@@H](O)[C@H](O)[C@H]5O)[C@H](O)[C@H]4O)[C@H](O)[C@H]3O)[C@H](O)[C@H]2O)[C@H](O)[C@@H](O)[C@@H]1O` [PIII, α-maltotetraosyl glucoside], which DE [1] is on record?
A: Its DE is 0.10.

Q: Which results are given for `OC[C@H]1O[C@H](O[C@H]2O[C@H](CO)[C@@H](O[C@H]3O[C@H](CO)[C@@H](O)[C@H](O)[C@H]3O)[C@H](O)[C@H]2O)[C@H](O)[C@@H](O)[C@@H]1O` [Amorphous crystal, O-α-D-glucopyranosyl-(→4)-α-D-glucopyranosyl α-D-glucopyranoside]?
A: Water content ([3]; 0 hour): 0.5%; Water content ([3]; 2 hours): 6.3%; Water content ([3]; 8 hours): 17.4%; Water content ([3]; 24 hours): 20.0%; Hygroscopicity and appearance [3]: very hygroscopic, readily solidified, and free flowing

Q: Which “water content after standing in a room” value ([2]; anhydrous crystal converted into hydrous crystal) does the source give for `OC[C@H]1O[C@H](O[C@H]2O[C@H](CO)[C@@H](O[C@H]3O[C@H](CO)[C@@H](O)[C@H](O)[C@H]3O)[C@H](O)[C@H]2O)[C@H](O)[C@@H](O)[C@@H]1O` [Example A-5] here?
A: The value was “about 10%”.
